Here are results for two substances from US20190255144A1, “SPECIFIC OLIGOPEPTIDES AS ANTI-ANGIOGENIC DRUGS” (NEURONAX, priority 2014, published 2019).

Assay [1] concerns HBMEC cells. The assay is described as follows: ELISA Cell Death test for induction of the apoptosis on the HBMEC cells. The format is cell-based, human. The following applies: basal medium. As to the method:
The apoptosis process is accompanied by the fragmentation of DNA and thus generates soluble nucleosomes (cytoplasmic histones associated with fragmented DNA), which can be metered by an immunoenzymatic method, ELISA Cell Death Plus (Enzyme-Linked ImmunoSorbent Assay) Kit (Roche Molecular Diagnostics, France) according to the recommendations of the supplier. The HBMEC cells were inoculated in a 24-well plate at the density of 5.10^3 cells/wells and allowed to stand for 24 hours. The cells are cultivated in a basal medium, i.e., in the absence of growth factors, which is changed before they are exposed to various treatments for 24 hours. They are then recovered and then centrifuged with 200 g for 5 minutes. The cells are then counted, and then adjusted to 3.10^4 cells/mL in PBS. A new centrifuging with 200 g is carried out for 10 minutes. The supernatant is removed, and the cell pellet is taken up in 200 μl of lysis buffer before incubation for 30 minutes at ambient temperature. After a new centrifuging for 10 minutes at 1,400 rpm, 20 μL of supernatant is distributed in wells coated with streptavidin and each condition is carried out in duplicate. 80 μL of the immunoreagent solution is added into each well. […] The reaction is then halted by adding 100 μL of ABTS stop solution, and the results are then analyzed using a 405-nm plaque reader. […]

Assay [2] relates to tumors obtained from U87-MG grafts on the CAM. Nature of the assay: Experimental tumors from U87-MG grafts on the CAM: vascularization, Ki-67, vimentin. Format: in vivo, chicken embryo. The following applies: for Tumor vascularization, density of the vessels that irrigate the tumor (in words): topical 250 μg/mL; for Quantification of the Ki-67 labeling, Center 1 / Quantification of the Ki-67 labeling, Center 2 / Quantification of the Ki-67 labeling, Edge 1 / Quantification of the Ki-67 labeling, Edge 2: treated 48 hours; for Quantification of the Ki-67 labeling, Center 1 / Quantification of the Ki-67 labeling, Center 2: tumor center; for Quantification of the Ki-67 labeling, Edge 1 / Quantification of the Ki-67 labeling, Edge 2: tumor edge. As to the method: To obtain a tumor, the U87-MG cells are inoculated at a rate of 200,000 cells in 75-cm^2 flasks in the presence of a basal medium. A volume that contains 4.10^6 cells is then sampled, and after centrifuging for 5 minutes with 311 g, the supernatant is eliminated, and the cells are resuspended in 20 μL of differential medium that is deposited in the center of a silicone ring that was previously applied on the CAM of an embryo at ED9. Once the grafting is done, the embryo is set out to incubate. At ED11, the tumors can be observed under a MZFL3 binocular (Leica, Paris, France). At this stage, the tumors are either treated topically (apical part of the tumor) by 30 μL of the oligopeptide according to the invention at 250 μg/mL or else by 30 μL of sterile distilled water up to stage ED13. The tumors are then sampled, and cryosections are produced to make possible immunohistochemical analyses. […] The macroscopic observations of tumors as well as the diffusion of fluorescein into the vessels are made with a fluorescence binocular (MZFL3, Leica, France).
A volume that contains 4.10^6 cells is then sampled and after centrifuging for 5 minutes with 300 g, the supernatant is eliminated, and the cells are resuspended in 20 μL of differential medium that is deposited in the center of a silicone ring that was previously applied on the CAM of an embryo at ED9. Once the grafting has been done, the embryo is set out to incubate.
At ED11, the tumors can be observed under a MZFL3 binocular (Leica, Paris, France), and it is possible to track the change in the tumor growth up to ED14.
The tumors that are developed on the CAM are observed on the chorioallantoic membrane using a MZFL3-type binocular (Leica, France) before being sampled.
The vascular endothelium of the vessels of a chicken is labeled using a lectin, SNA-1 (Sambuccus Nigra Agglutinin-1, Vector Laboratories), coupled to FITC (fluorescein isothiocyanate).
After 10 minutes of attachment with 200 μL of 4% PBS 1X-PFA at ambient temperature, the sections are incubated with a solution of 0.05% TBS 1X-Tween-0.1% Trypsin, pH 7.6, for 10 minutes. They are then washed 3 times in PBS 1X, and 100 μL of a dilution with 1/200th of the SNA-1 lectin in a solution of 0.05% TBS 1X-Tween with pH 7.6 is applied for 1 hour. After washing cycles (the last of which is carried out with distilled water), the slides are then mounted as described in the preceding paragraph and observed with a fluorescence microscope. Counts of vessels were made from photos with a magnification ×100 and in a marginal zone spreading 600 μm from the edge of the tumor. An ANOVA-type statistical test was then carried out to validate the relevance of the effect observed. The SNA-1 lectin specifically labels the chicken endothelial cells that constitute the vascular wall.
The tumors are attached in 4% PBS 1X-PFA (24 hours) and then dehydrated in absolute ethanol and then in pure toluene and next are enclosed and preserved in a paraffin block. 4-μm sections are made from a microtome and deposited on Superfrost plus slides, and then dried in an oven at 50° C. for one night.
To carry out the immunolabeling, the sections are dewaxed and then rehydrated by baths of decreasing concentrations of ethanol and then rinsed in PBS 1X.
So as to unmask the antigenic sites, the slides are incubated in a citrate buffer with pH 7 (200 μM of citric acid; 9.8 mmol of sodium citrate) and undergo a heating cycle (4×5 minutes at 750 W in the microwave). The endogenic peroxidases are inhibited by carrying out a 10-minute bath in methanol-5%H2O2. After 3 washing cycles, the saturation of PBS-3% BSA and then the incubation with the anti-Ki67 antibody are carried out. After rinsing with PBS 1X, an HRP-conjugated secondary antibody is applied for 1 hour at ambient temperature. […] A counter-staining is carried out in hematoxylin, and the sections are mounted in an aqueous solution before being observed with a Leica DMRX microscope.

Assay [3] concerns genes in experimental tumors obtained from the CAM. Nature of the assay: Quantitative analysis of the mRNA in experimental tumors obtained from CAM. The following applies: for Mean RQ ANGPT1 / Mean RQ ANGPT2 / Mean RQ CD36 / Mean RQ FGF2 / Mean RQ ITGB1 / Mean RQ KDR / Mean RQ PDGFB / Mean RQ PDGFRB / Mean RQ PLAU / Mean RQ TEK / Mean RQ TIE-1 / Mean RQ TIMP1 / Mean RQ TIMP4 / Mean RQ VEGFA: CAM tumors, relative expression, control = 1, triplicate; for Increase of expression of genes coding for the receptors (ITGB1, PDGFRβ, KDR, TIE-1, TIE-2, CD36) in relation to the control: experimental tumors obtained from the CAM. The format is in vivo, chicken. An excerpt:
These receptors belong to the chicken species and are therefore found in the host vessels. […] Furthermore, the overexpression of ITGB1 at the same time as that of CD36 differentiates the peptide according to the invention (NX) from the TSP-1 (TSP).

The mark [4] stands for this setting: U87-MG tumor on CAM, listed as TSP1.

“And” between values parts separate entries of the source, which are not always exact repeats. Equal entries are not always repeated. “Also recorded” adds a separate entry of the source.

Regarding “—W—S-G-W—S—S—C—S—R—S—C-G- (WSGWSSCSRSCG; Oligopeptide derived from SCO-Spondin) [NX]”, the “Protection of HBMEC from apoptosis (in words)” value in assay [1] is on record as “protects the HBMEC human endothelial cells from the apoptosis at a level similar to the VEGF”. Further, in assay [2] (CAM tumors 1 to 2 mm in diameter), the “Time to disappearance of pinkish color (capillaries on the surface of the tumor)” value is at most 24 h. Also, in assay [2] (U87-MG tumor on CAM), the “SNA-1 labeling of vessels on tumor sections” value is given as “the SNA-1 labeling disappears more specifically into the zone that is close to the surface of the tumor”; the “Quantification of the Ki-67 labeling, Center 1” value is 355.5 and 369; the “Quantification of the Ki-67 labeling, Center 2” value is 383.5 and 370; the “Quantification of the Ki-67 labeling, Edge 1” value was 165 and 184. In addition, the “Quantification of the Ki-67 labeling, Edge 2” value in assay [2] (U87-MG tumor on CAM) is 172 and 153. For the same substance, in assay [2] (U87-MG tumor on CAM, listed as oligopeptide according to the invention), the “Tumor vascularization, density of the vessels that irrigate the tumor (in words)” value is recorded as “more effective than the TSP-1; also recorded: significant reduction in the density of the vessels that irrigate the tumor”. Besides, in assay [2] (U87-MG tumor on CAM, vimentin/SNA-1 co-labeling), the “Tumor cells expressing the vimentin” value is listed as “reduction in the number of differentiated tumor cells expressing the vimentin”. For the same substance, the “Ki-67 labeling of tumor (in words)” value in assay [2] (tumors in the CAM model, peripheral zone) is “the peripheral zone does not express the Ki67 marker”. For the same substance, in assay [3], the “Mean RQ ANGPT1” value is reported as 0.8241, the “Mean RQ ANGPT2” value is on record as 0.6787, the “Mean RQ CD36” value was 3.831 and the “Mean RQ FGF2” value was 0.686. Also, in assay [3], the “Mean RQ ITGB1” value is on record as 4.07, the “Mean RQ KDR” value is recorded as 4.207, the “Mean RQ PDGFB” value is given as 2.104 and the “Mean RQ PDGFRB” value was 4.366. In assay [3], the “Mean RQ PLAU” value is 1.151, the “Mean RQ TEK” value stood at 4.539, the “Mean RQ TIE-1” value is listed as 3.961 and the “Mean RQ TIMP1” value worked out at 1.237. Also, in assay [3], the “Mean RQ TIMP4” value is 0.6552; the “Mean RQ VEGFA” value came to 1.298; the “Increase of expression of genes coding for the receptors (ITGB1, PDGFRβ, KDR, TIE-1, TIE-2, CD36) in relation to the control” value was 4 factor.
As to “thrombospondin 1 [TSP, reference compound]”, the “Protection of HBMEC from apoptosis (in words)” value in assay [1] is reported as “this effect is not observed”. In assay [2] (U87-MG tumor on CAM), the “Tumor vascularization, density of the vessels that irrigate the tumor (in words)” value was “produces the same effects but to a lesser degree”. In assay [2] (setting [4]), the “Quantification of the Ki-67 labeling, Center 1” value is 300 and 233; the “Quantification of the Ki-67 labeling, Center 2” value was 292 and 350; the “Quantification of the Ki-67 labeling, Edge 1” value was 227 and 286; the “Quantification of the Ki-67 labeling, Edge 2” value was 314 and 228. In addition, in assay [3], the “Mean RQ ANGPT1” value is 0.5106, the “Mean RQ ANGPT2” value stood at 0.2678, the “Mean RQ CD36” value is recorded as 2.965 and the “Mean RQ FGF2” value was determined as 0.3429. Besides, in assay [3], the “Mean RQ ITGB1” value amounted to 1.317, the “Mean RQ KDR” value came out at 1.557, the “Mean RQ PDGFB” value turned out to be 0.6327 and the “Mean RQ PDGFRB” value worked out at 2.544. In assay [3], the “Mean RQ PLAU” value is 1.491, the “Mean RQ TEK” value worked out at 1.385, the “Mean RQ TIE-1” value is 1.79 and the “Mean RQ TIMP1” value is listed as 0.4492. For the same substance, in assay [3], the “Mean RQ TIMP4” value is given as 0.6642; the “Mean RQ VEGFA” value was 0.5392; the “Increase of expression of genes coding for the receptors (ITGB1, PDGFRβ, KDR, TIE-1, TIE-2, CD36) in relation to the control” value is on record as “on a lesser scale”.
